Laboratory results taken from patent US7592188B2, “Live cell biosensors” (The Scripps Research Institute, priority 2004, dated 2009).
Each block holds one molecule with its values, some of them ahead of it.

Experiments:
[1] = Photophysical properties of dyes in various solvents (absorbance, emission, quantum yield); format: physicochemical; parameters: ε × F / ε × Φ: unit not given here
Description: Analytical grade reagents were purchased from major suppliers. […] Emission and excitation spectra were obtained using a Spex Fluorolog 2 spectrofluorometer at 23° C. […] Demas et al., J. Phys. […] All operations with dyes were performed under dim light. Flasks containing dyes were wrapped with aluminum foil.

[2] = Dye photo-bleaching under tungsten lamp irradiation; format: physicochemical
Description: Photo-bleaching. All samples contained 1 mM dye in a final volume of 10 mL. For nitrogen and oxygen saturation the samples were bubbled with solvent-saturated gas for 30 min. A 90 W halogen tungsten lamp was employed for irradiation, with a fan used for cooling. The temperature of samples was 25±1° C. during reactions. The absorption spectrum of each sample was measured before irradiation and after every 10 h period. For the trapping experiment thioanisole (1.0 M) was added to oxygen-saturated butanol solution of dye 1b. After 60 h of irradiation the reaction mixture was analyzed by GC-MS for products formed. The products, methylphenylsulfoxide and methylphenyl sulfone, were identified by comparison with authentic samples.
Dyes used in living cells must be photostable to provide many sequential images and to obtain sufficient light from minimal amounts of exogenous labeled material. The photostability of the new dyes was characterized by exposing them to constant illumination from a tungsten lamp filtered through glass, a broad spectrum light source that provided essentially equal intensity throughout the spectral range where the dyes would be irradiated in vivo. A fan was used to prevent heating, and dye solutions were adjusted for equal maximal absorbance, kept below 1 μM to minimize the inner filter effect. […] Photo-bleaching followed first-order kinetics in all cases.

- Emission λmax ([1]; reactive forms, solvent BuOH): 639 nm
- absorption λmax ([1]; reactive forms, solvent BuOH): 607 nm
- Φ (quantum yield of fluorescence) ([1]; reactive forms, solvent BuOH): 0.06
- ε (molar extinction coefficient) ([1]; reactive forms, solvent BuOH): (150000)
- ε × Φ ([1]; reactive forms, solvent BuOH): 9000
- Emission λmax ([1]; reactive forms, solvent H2O): 630 nm
- absorption λmax ([1]; reactive forms, solvent H2O): 599 nm
- Φ (quantum yield of fluorescence) ([1]; reactive forms, solvent H2O): 0.004
- ε (molar extinction coefficient) ([1]; reactive forms, solvent H2O): (143000)
- ε × Φ ([1]; reactive forms, solvent H2O): 600
- Emission λmax ([1]; reactive forms, solvent MeOH): 634 nm
- absorption λmax ([1]; reactive forms, solvent MeOH): 601 nm
- Φ (quantum yield of fluorescence) ([1]; reactive forms, solvent MeOH): 0.01
- ε (molar extinction coefficient) ([1]; reactive forms, solvent MeOH): (138000)
- ε × Φ ([1]; reactive forms, solvent MeOH): 1400
Molecule: CC1(C)/C(=C/C=C/C=C2/C(=O)c3ccccc3S2(=O)=O)N(CCCS(=O)(=O)[O-])c2ccc(NC(=O)CI)cc21.[Na+] [dye 4e, Sodium 3-{(2Z)-5-[(Iodoacetyl)amino]-2-[(2E,4Z)-4-(1,1-dioxido-3-oxo-1-benzothien-2(3H)-ylidene)but-2-enylidene]-3,3-dimethyl-2,3-dihydro-1H-indol-1-yl}propane-1-sulfonate]

- Emission λmax ([1]; reactive forms, solvent BuOH): 623 nm
- absorption λmax ([1]; reactive forms, solvent BuOH): 590 nm
- Φ (quantum yield of fluorescence) ([1]; reactive forms, solvent BuOH): 0.19
- ε (molar extinction coefficient) ([1]; reactive forms, solvent BuOH): (134000)
- ε × Φ ([1]; reactive forms, solvent BuOH): 26000
- Emission λmax ([1]; reactive forms, solvent H2O): 616 nm
- absorption λmax ([1]; reactive forms, solvent H2O): 594 nm
- Φ (quantum yield of fluorescence) ([1]; reactive forms, solvent H2O): 0.01
- ε (molar extinction coefficient) ([1]; reactive forms, solvent H2O): (150000)
- ε × Φ ([1]; reactive forms, solvent H2O): 1500
- Emission λmax ([1]; reactive forms, solvent MeOH): 620 nm
- absorption λmax ([1]; reactive forms, solvent MeOH): 586 nm
- Φ (quantum yield of fluorescence) ([1]; reactive forms, solvent MeOH): 0.05
- ε (molar extinction coefficient) ([1]; reactive forms, solvent MeOH): (140000)
- ε × Φ ([1]; reactive forms, solvent MeOH): 7000
Molecule: CN(C(=O)COCC(=O)ON1C(=O)CCC1=O)c1ccc2c(c1)C(C)(C)/C(=C/C=C/C=C1/C(=O)c3ccccc3S1(=O)=O)N2CCCS(=O)(=O)[O-].[Na+] [dye 4f, Sodium 3-{(2Z)-5-[({2-[(2,5-Dioxopyrrolidin-1-yl)oxy]-2-oxoethoxy}acetyl)methylamino]-2-[(2E,4Z)-4-(1,1-dioxido-3-oxo-1-benzothien-2(3H)-ylidene)but-2-enylidene]-3,3-dimethyl-2,3-dihydro-1H-indol-1-yl}propane-1-sulfonate]

- quantum yield after reaction with β-mercaptoethanol relative to underivatized fluorophore [1]: half that of the unaltered fluorophore
- Emission λmax ([1]; reactive forms, solvent BuOH): 628 nm
- absorption λmax ([1]; reactive forms, solvent BuOH): 609 nm
- Φ (quantum yield of fluorescence) ([1]; reactive forms, solvent BuOH): 0.12
- ε (molar extinction coefficient) ([1]; reactive forms, solvent BuOH): (142000)
- ε × Φ ([1]; reactive forms, solvent BuOH): 17000
- Emission λmax ([1]; reactive forms, solvent H2O): 620 nm
- absorption λmax ([1]; reactive forms, solvent H2O): 600 nm
- Φ (quantum yield of fluorescence) ([1]; reactive forms, solvent H2O): 0.02
- ε (molar extinction coefficient) ([1]; reactive forms, solvent H2O): (140000)
- ε × Φ ([1]; reactive forms, solvent H2O): 3000
- Emission λmax ([1]; reactive forms, solvent MeOH): 621 nm
- absorption λmax ([1]; reactive forms, solvent MeOH): 601 nm
- Φ (quantum yield of fluorescence) ([1]; reactive forms, solvent MeOH): 0.04
- ε (molar extinction coefficient) ([1]; reactive forms, solvent MeOH): (140000)
- ε × Φ ([1]; reactive forms, solvent MeOH): 6000
Molecule: CC1(C)\C(=C/C=C/C=C2/C(=O)c3ccccc3S2(=O)=O)N(CCCS(=O)(=O)[O-])c2ccc(NC(=O)CSCCO)cc21.[Na+] [dye 4g, Sodium 3-{(2E)-5-({[(2-Hydroxyethyl)thio]acetyl}amino)-2-[(2E,4Z)-4-(1,1-dioxido-3-oxo-1-benzothien-2(3H)-ylidene)but-2-enylidene]-3,3-dimethyl-2,3-dihydro-2,3-dihydro-1H-indol-1-yl}propane-1-sulfonate]

Continued, molecule first:

Molecule: CCN1\C(=C/C=C/C=C2/C(=O)c3ccccc3S2(=O)=O)Sc2ccccc21 [dye 2a, (2Z)-2-[(2E,4E)-4-(3-Ethyl-1,3-benzothiazol-2(3H)-ylidene)but-2-enylidene]-1-benzothiophen-3(2H)-one 1,1-Dioxide]
- Abs. λmax ([1]; solvent BuOH): 604 nm
- Emission λmax ([1]; solvent BuOH): 622 nm
- Φ (quantum yield of fluorescence) ([1]; solvent BuOH): 0.12
- ε (molar extinction coefficient) ([1]; solvent BuOH): (163000)
- ε × F ([1]; solvent BuOH): 20000
- Abs. λmax ([1]; solvent C6H6): 591 nm
- Emission λmax ([1]; solvent C6H6): 617 nm
- Φ (quantum yield of fluorescence) ([1]; solvent C6H6): 0.16
- ε (molar extinction coefficient) ([1]; solvent C6H6): (152000)
- ε × F ([1]; solvent C6H6): 24000
- Abs. λmax ([1]; solvent DMF): 602 nm
- Emission λmax ([1]; solvent DMF): 619 nm
- Φ (quantum yield of fluorescence) ([1]; solvent DMF): 0.22
- ε (molar extinction coefficient) ([1]; solvent DMF): (173000)
- ε × F ([1]; solvent DMF): 38000
- Abs. λmax ([1]; solvent MeOH): 598 nm
- Emission λmax ([1]; solvent MeOH): 617 nm
- Φ (quantum yield of fluorescence) ([1]; solvent MeOH): 0.05
- ε (molar extinction coefficient) ([1]; solvent MeOH): (143000)
- ε × F ([1]; solvent MeOH): 7000
- Abs. λmax ([1]; solvent OcOH): 606 nm
- Emission λmax ([1]; solvent OcOH): 623 nm
- Φ (quantum yield of fluorescence) ([1]; solvent OcOH): 0.17
- ε (molar extinction coefficient) ([1]; solvent OcOH): (168000)
- ε × F ([1]; solvent OcOH): 29000
- Absolute rate constant of dye photo-bleaching, kph × 10^6 ([2]; BuOH): 5.2 s^−1
- Absolute rate constant of dye photo-bleaching, kph × 10^6 ([2]; MeOH): 3.0 s^−1

Molecule: O=C(CI)Nc1ccc2c(c1)S/C(=C/C=C/C=C1/C(=O)c3ccccc3S1(=O)=O)N2CCCS(=O)(=O)[O-].[Na+] [dye 2e, Sodium 3-[(2E)-6-[(Iodoacetyl)amino]-2-[(2E,4Z)-4-(1,1-dioxido-3-oxo-1-benzothien-2(3H)-ylidene)but-2-enylidene]-1,3-benzothiazol-3(2H)-yl]propane-1-sulfonate]
- Emission λmax ([1]; reactive forms, solvent BuOH): 636 nm
- absorption λmax ([1]; reactive forms, solvent BuOH): 618 nm
- Φ (quantum yield of fluorescence) ([1]; reactive forms, solvent BuOH): 0.06
- ε (molar extinction coefficient) ([1]; reactive forms, solvent BuOH): (160000)
- ε × Φ ([1]; reactive forms, solvent BuOH): 9600
- Emission λmax ([1]; reactive forms, solvent H2O): 618 nm
- Emission λmax ([1]; reactive forms, solvent MeOH): 628 nm
- absorption λmax ([1]; reactive forms, solvent MeOH): 610 nm
- Φ (quantum yield of fluorescence) ([1]; reactive forms, solvent MeOH): 0.034
- ε (molar extinction coefficient) ([1]; reactive forms, solvent MeOH): (140000)
- ε × Φ ([1]; reactive forms, solvent MeOH): 3000

Molecule: O=C(CSCCO)Nc1ccc2c(c1)S\C(=C/C=C/C=C1/C(=O)c3ccccc3S1(=O)=O)N2CCCS(=O)(=O)[O-].[Na+] [dye 2g, Sodium 3-[(2Z)-6-({[(2-Hydroxyethyl)thio]acetyl}amino)-2-[(2E,4Z)-4-(1,1-dioxido-3-oxo-1-benzothien-2(3H)-ylidene)but-2-enylidene]-1,3-benzothiazol-3(2H)-yl]propane-1-sulfonate]
- quantum yield after reaction with β-mercaptoethanol relative to underivatized fluorophore [1]: returned the quantum yield of S—SO to that of the underivatized fluorophore
- Emission λmax ([1]; reactive forms, solvent MeOH): 629 nm
- absorption λmax ([1]; reactive forms, solvent MeOH): 610 nm
- Φ (quantum yield of fluorescence) ([1]; reactive forms, solvent MeOH): 0.054
- ε (molar extinction coefficient) ([1]; reactive forms, solvent MeOH): (138000)
- ε × Φ ([1]; reactive forms, solvent MeOH): 8000

Molecule: Sodium 3-[(2E)-6-[({2-[(2,5-Dioxopyrrolidin-1-yl)oxy]-2-oxoethoxy}-acetyl)methylaminol]-2-[(2E,4Z)-4-(1,1-dioxido-3-oxo-1-benzothien-2(3H)-ylidene)but-2-enylidene]-1,3-benzothiazol-3(2H)-yl]propane-1-sulfonate [dye 2f]
- Emission λmax ([1]; reactive forms, solvent BuOH): 626 nm
- absorption λmax ([1]; reactive forms, solvent BuOH): 608 nm
- Φ (quantum yield of fluorescence) ([1]; reactive forms, solvent BuOH): 0.12
- ε (molar extinction coefficient) ([1]; reactive forms, solvent BuOH): (134000)
- Emission λmax ([1]; reactive forms, solvent H2O): 618 nm
- Emission λmax ([1]; reactive forms, solvent MeOH): 621 nm
- absorption λmax ([1]; reactive forms, solvent MeOH): 603 nm
- Φ (quantum yield of fluorescence) ([1]; reactive forms, solvent MeOH): 0.06
- ε (molar extinction coefficient) ([1]; reactive forms, solvent MeOH): (142000)
